Results published in patent US20200237766A1, “PKM2 ACTIVATORS IN COMBINATION WITH REACTIVE OXYGEN SPECIES FOR TREATMENT OF CANCER” (TOLERO PHARMACEUTICALS, INC., priority 2017, published 2020).
Counter-ions that a name gives are not always drawn. Like-named read-outs stand apart in the source and are kept apart here.

Legend:
[1] = system: A549 human lung cancer cells; assay: Subcutaneous A549 human lung cancer xenograft model in BALB/c nude mice (Example 8); assay type: in vivo, Mus musculus; settings: Group 2: Doxorubicin 2 mg/kg i.v. Q2D × 3 weeks + vehicle p.o.
Protocol: A549 human lung cancer cells were inoculated in BALB/c nude mice and treatment was initiated when tumors reached a mean volume of approximately 100 mm^3.
4.5 Randomization 60 mice were enrolled in the study. All animals were randomly allocated to the 6 different study groups. […] Randomization was performed based on “Matched distribution” randomization method using multi-task method (StudyDirector™ software, version 3.1.399.19) on day 13.
After tumor cell inoculation, the animals were checked daily for morbidity and mortality. At the time of routine monitoring, the animals were checked for any effects of tumor growth and treatments on behavior such as mobility, food and water consumption, body weight gain/loss (body weight was measured twice per week, or based on request after randomization), and any other abnormalities. Mortality and observed clinical signs were recorded for individual animals.
Tumor volumes were measured twice weekly in two dimensions using a caliper, and the volume was expressed in mm^3 using the formula: V=(L×W×W)/2, where V is tumor volume, L is tumor length (the longest tumor dimension) and W is tumor width (the longest tumor dimension perpendicular to L).
Tumor weight was measured at the end of study based on the protocol. Dosing as well as tumor and body weight measurement were conducted in a Laminar Flow Cabinet.
Statistical analysis of differences in mean tumor volume among the groups was conducted by Independent-Samples T Test using the data collected.
All data were analyzed with SPSS (Statistical Product and Service Solutions) version 18.0 (IBM, Armonk, N.Y., U.S.). […] All tests were two-sided. P<0.05 was considered to be statistically significant.

A549 cells [2] = assay: GSH-Glo glutathione level assay in A549 cells; assay type: cell-based, human; settings: treated 48 hours, even at concentrations as low as 0.1 μM
Protocol: Cells were treated for 48 hours, and then glutathione levels were determined using a GSH-Glo assay kit and procedure from Promega.

A549 cells [3] = assay: Cell-titer-Glo cell viability, A549 cells; assay type: cell-based, human
A549 lung cancer cells = assay: A549 xenograft study in athymic nude mice (Example 7), tumor volume; assay type: in vivo; settings: combination of doxorubicin 2 mg/kg every 2 days and Compound 91 200 mg/kg every day
Protocol: (§1) A xenograph study was performed using A549 lung cancer cells to interrogate the in vivo synergy between a representative ROS-producing anti-cancer drug and a PKM2 activator. Mice (6-8 week old female athymic nude) were housed under standard conditions, and allowed food and water ad libitum and injected with 1×10^7 A549 cells per mouse.
(§2) Tumor volume and body weights were measured and recorded twice weekly (FIGS. 7A and 7B, respectively). Upon completion of the study, mice were euthanized and tumor tissues were harvested.

[4] = Body weight in A549 xenograft study (Example 7); assay type: in vivo; settings: combination of doxorubicin 2 mg/kg every 2 days and Compound 91 200 mg/kg every day, athymic nude mice
Protocol: as §1, with “mouse. […] Compound 91 was administered orally at a concentration of 200 mg/kg every day.” for “mouse.”
as §2

PKM2 = PKM2 (Homo sapiens, UniProt P14618); assay: PKM2 activation biochemical assay (AC50 / max. response vs fructose 1,6-bisphosphate); settings: for AC50: biochemical assay, read-out: PKM2 AC50; for Max. Resp. (%): % maximum response in a biochemical assay as compared with Fructose 1,6-bisphosphate
Panc1 cells = assay: Cell-titer-Glo cell viability, Panc1 cells; assay type: cell-based; settings: Compound 91 at 4 μM
Protocol: A549 and Pancl cells were plated using 384-well plates at a density of 1,200 cells per well. Cells were plated in RPMI media and allowed to adhere for 24 hours at 37° C. […] Cells were also treated with Compound 91 alone as a control. Cell viability was determined according to the Cell-titer-Glo assay kit and protocol from Promega Biosciences, LLC (Madison, Wis.).
A549 and Panc1 cells were plated according to the procedure described in Example 1. Cells were treated using a concentration gradient of rapamycin (FIGS. 5A-B) or Vosaroxin (a TOPOII poison; FIG. 5C), both in the presence and absence of Compound 91 at a concentration of 4 μM in replicates of 7 per condition. Cell viability was determined using the Cell-titer-Glo assay kit according to the procedure described in the examples above.

[5] = Homo sapiens, A549 cells, anti-cancer drug alone, Cell-titer-Glo, read-out: EC50, cell viability

Sequence of PKM2 (P14618 whole entry): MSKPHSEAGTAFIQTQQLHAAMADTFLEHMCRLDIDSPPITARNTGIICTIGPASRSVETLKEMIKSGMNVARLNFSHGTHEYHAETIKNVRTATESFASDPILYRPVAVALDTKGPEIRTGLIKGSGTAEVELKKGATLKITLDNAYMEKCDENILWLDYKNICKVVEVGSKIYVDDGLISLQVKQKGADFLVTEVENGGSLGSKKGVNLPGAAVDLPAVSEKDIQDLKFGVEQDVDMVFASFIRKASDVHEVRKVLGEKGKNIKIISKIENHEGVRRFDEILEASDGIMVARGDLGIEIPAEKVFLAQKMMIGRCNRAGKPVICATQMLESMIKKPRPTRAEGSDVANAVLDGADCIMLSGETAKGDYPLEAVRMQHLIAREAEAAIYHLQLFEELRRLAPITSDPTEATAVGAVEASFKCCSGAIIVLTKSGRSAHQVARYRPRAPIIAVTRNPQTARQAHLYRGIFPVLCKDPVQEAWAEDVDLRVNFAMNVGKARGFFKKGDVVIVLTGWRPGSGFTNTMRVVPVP

## COc1cccc2c1C(=O)c1c(O)c3c(c(O)c1C2=O)C[C@@](O)(C(=O)CO)C[C@@H]3O[C@H]1C[C@H](N)[C@H](O)[C@H](C)O1 [Doxorubicin, doxorubicin, reference compound]
[1]; Mean ± SEM
  Tumor Size (mm^3) on day 33: 723.15 ± 129.91 mm^3
  Tumor Weight (mg) on day 33: 676.9 ± 107.8 mg
[1]; day 33
  T/C (%) (tumor size): 93%
  T/C (%) (tumor weight): 91%
  TGI (%) (tumor size): 7%
  TGI (%) (tumor weight): 9%

## O=S(=O)(c1ccc2c(c1)OCCO2)N1CCN(S(=O)(=O)c2c(F)cccc2F)CC1 [DASA, reference compound]
A549 cells [2]
  glutathione levels (GSH-Glo): decreased levels of glutathione

## CNC(=O)c1cc(Oc2ccc(NC(=O)Nc3ccc(Cl)c(C(F)(F)F)c3)cc2)ccn1 [sorafenib]
A549 cells [3]; A549 cells, in the presence of Compound 91 at 4 μM, Cell-titer-Glo, read-out: EC50, cell viability, in combination with Compound 91
  EC50: 7130 nM
A549 cells [3]; [5]
  EC50: 30100 nM

## Nc1cccc(F)c1CN(CCC1CCS(=O)(=O)CC1)C(=O)c1cc(C(F)(F)F)n[nH]1 [Compound 91]
A549 cells [2]
  glutathione levels (GSH-Glo): decreased levels of glutathione
A549 lung cancer cells
  tumor volume: best reduction of tumor volume
[4]
  body weight: no significant body weight reduction or fluctuation

## C=CCNc1c(O)cc2c(O)c1C[C@@H](C)C[C@H](OC)[C@H](O)[C@@H](C)/C=C(\C)[C@H](OC(N)=O)[C@@H](OC)/C=C\C=C(/C)C(=O)N2 [IPI-504, retaspimycin hydrochloride]
A549 cells [3]; Homo sapiens, A549, read-out: EC50, cell viability
  EC50: 59.9 nM

## Cc1cccc2nc(Cn3cnc4ccccc43)cc(=O)n12 [PP8]
A549 cells [2]
  glutathione levels (GSH-Glo): decreased levels of glutathione
PKM2
  AC50: 159 nM

## CC(C)C[C@H](NC(=O)[C@H](Cc1ccccc1)NC(=O)c1cnccn1)B(O)O [bortezomib]
A549 cells [3]; A549 cells, Compound 91 at 4 μM vs drug alone
  decrease in EC50 when used in combination with Compound 91: ~2 fold
A549 cells [3]; [5]
  EC50: 43.4 nM
A549 cells [3]; Homo sapiens, A549 cells, in the presence of Compound 91 at 4 μM, Cell-titer-Glo, read-out: EC50, cell viability, in combination with Compound 91
  EC50: 27 nM

## CN[C@H]1CN(c2ccc3c(=O)c(C(=O)O)cn(-c4nccs4)c3n2)C[C@@H]1OC [Vosaroxin]
A549 cells [3]; A549 cells, Compound 91 at 4 μM, Cell-titer-Glo
  cell viability: activity in presence vs absence of Compound 91: no significant change
Panc1 cells
  cell viability: activity in presence vs absence of Compound 91: no significant change

## CCN(CC)CCN(Cc1ccc(O)cc1F)C(=O)c1cc(C(F)(F)F)n[nH]1 [Compound 143]
PKM2
  Max. Resp. (%): 100%
  AC50: 108 nM

## O=C(c1cc(C(F)(F)F)n[nH]1)N(Cc1cccc(Cl)c1O)CC1CCC1 [Compound 141]
PKM2
  Max. Resp. (%): 100%
  AC50: 6500 nM

## O=C(c1cc(C(F)(F)F)n[nH]1)N(CCN1CCC(F)(F)CC1)Cc1ccccc1Cl [Compound 205]
PKM2
  Max. Resp. (%): 100%
  AC50: 2050 nM
